Numbering of substitutions follows the chain as printed.

Test [1] has as its target T1, endogenous renin in human plasma (Homo sapiens, UniProt P00797).
T1 construct: incubation (37° C.) of the endogenous renin and angiotensinogen in plasma at pH 6.0; from tissue; host or cells: pooled human plasma (EDTA) from male volunteers
T1 sequence (P00797 67-406): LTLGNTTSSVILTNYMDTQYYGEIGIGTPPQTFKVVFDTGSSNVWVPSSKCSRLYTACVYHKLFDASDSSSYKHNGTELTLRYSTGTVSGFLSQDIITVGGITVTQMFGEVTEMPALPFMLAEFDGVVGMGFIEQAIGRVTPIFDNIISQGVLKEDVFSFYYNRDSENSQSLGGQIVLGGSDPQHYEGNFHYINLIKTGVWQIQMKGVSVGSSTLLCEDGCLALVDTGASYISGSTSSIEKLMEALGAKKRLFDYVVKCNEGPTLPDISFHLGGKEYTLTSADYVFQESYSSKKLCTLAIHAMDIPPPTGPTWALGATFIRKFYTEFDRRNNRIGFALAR
In words: Test 1: inhibition of human plasma renin activity (Ang I formation, RIA). As to conditions: human plasma pool, pH 6.0, 37° C., 90 minutes incubation, Probit method; read-out: IC50 (concentration that inhibited plasma renin activity by 50%). It is filed as biochemical. Here is the method: Human plasma was collected from male volunteers pretreated with no drugs and used as a pool. Disodium salt of ethylenediaminetetraacetic acid (EDTA) was used as the anticoagulant. Plasma renin activity was measured as the rate of angiotensin I (Ang I) formation after incubation (37° C.) of the endogenous renin and angiotensinogen in plasma at pH 6.0. The incubation mixture contained 250 μl of plasma, 5 μl of (phenylmethyl)sulfonyl fluoride, 30 μl of buffer (sodium, potassium-phosphate, pH 6.0), and 15 μl of an appropriate concentration of test compound in 50% ethyl alcohol-water vehicle. The Ang I formed after 90 minutes of incubation was measured by radioimmunoassay (RIA) which was carried out with a commercial kit, RENCTK 100 (manufactured by Commissariat A L'energie Atomique). Samples were incubated in duplicate and each tube was measured in duplicate in the RIA. Percentage inhibition of plasma renin activity was calculated by comparing the amount of Ang I produced with and without a test compound. The concentration of test compound that inhibited plasma renin activity by 50% ) (IC50) was determined by Probit method.

Test [2] has as its target T2, plasma renin activity (PRA) (Macaca fascicularis, UniProt Q6DLS0).
T2 construct: plasmas were obtained for determination of plasma renin activity (PRA); from tissue; host or cells: plasma of sodium-depleted cynomolgus monkeys, collected after oral dosing
T2 sequence (Q6DLS0 67-406): T1 sequence (P00797 67-406) with T2A, I148L, S169A
The test is described as follows: Test 2: inhibition of plasma renin activity (PRA) in sodium-depleted cynomolgus monkeys after oral dosing. It is filed as in vivo, cynomolgus monkeys (Macaca fascicularis). As to conditions: cynomolgus monkey; 32 mg/kg po, sodium-depleted (furosemide) cynomolgus monkeys, plasma collected 0-6 hours after dosing; read-out: Maximum inhibition of PRA. Here is the method: (§1) Male or female cynomolgus monkeys (Macaca fascicularis) weighing about 2.5-3.5 kg were used. Sodium depletion was achieved by administering furosemide, 15 mg/kg subcutaneously one day before and then 10 mg/kg intravenously 30 minutes before the administration of the test compound.
(§2) Test compounds were dissolved in diluted equimolar hydrochloric acid (pH 5-6) and orally administered to conscious and trained monkeys placed in restraining chairs with pneumatic cuff positioned around the arm for oscillometric measurement of mean arterial blood pressure (MAP) (Model BP-203 NPJ, manufactured by Nippon Colin).
Blood samples were collected at 0, 0.5, 1, 2, 4 and 6 hours after dosing from the antecubital vein of the monkey into disodium salt of EDTA coated tubes, centrifuged for 10 min (3000 rpm, 4° C.) and plasmas were obtained for determination of plasma renin activity (PRA). PRA was measured as the rate of Ang I formation with the same principle as illustrated in Test 1. 100 μl of sample plasma was mixed with 100 μl of the solution of angiotensinase inhibitors (3 mM 8-hydroxyquinoline sulfate and 5 mM 2,3-dimercaptopropanol , SB-REN-1, SORIN BIOMEDICA, Italy). Half (100 μl) of the mixture was incubated at 37° C. for one hour and Ang I formed was determined by a commercial RIA kit (DINABOTT). […] Percentage inhibition of PRA was calculated by the following formula: [formula] […]

Test [3] is described as follows: Test 2: hypotensive effect (mean arterial blood pressure) in sodium-depleted conscious cynomolgus monkeys, oral. It is filed as in vivo, cynomolgus monkeys (Macaca fascicularis). As to conditions: 32 mg/kg po, sodium-depleted (furosemide) conscious cynomolgus monkeys, MAP measured 0-6 hours. Here is the method: as §1, §2
The MAP was measured at 0 (predosing base line), 0.5, 1, 2, 3, 4 and 6 hours after administration of the test compound. The maximum hypotensive effect was calculated as the maximum percentage fall of MAP from the pretreatment value.

As to `CC(C)CC[C@H](O)[C@H](CC1CCCCC1)NC(=O)[C@H](Cc1c[nH]cn1)N(C)C(=O)[C@H](Cc1ccccc1)NC(=O)N1CCSCC1` [Test Compound (c), 2(S)-(N-Thiomorpholinocarbonyl-L-phenylalanyl-N^α -methyl-L-histidyl)amino-1-cyclohexyl-3(S)-hydroxy-6-methylheptane], the IC50 in test [1] stood at 24 nM. Still for that read-out and setting: next, `CC(C)CC[C@H](O)[C@H](CC1CCCCC1)NC(=O)[C@H](Cc1c[nH]cn1)N(C)C(=O)[C@H](Cc1ccccc1)NC(=O)N1CCc2ccccc2C1` [Test Compound (d), 2(S)-[N-(1,2,3,4-Tetrahydroisoquinolin-2-ylcarbonyl)-L-phenylalanyl-N^α -methyl-L-histidyl]amino-1-cyclohexyl-3(S)-hydroxy-6-methylheptane]: 60 nM.

In the case of `CC(C)CC[C@H](O)[C@H](CC1CCCCC1)NC(=O)[C@H](Cc1c[nH]cn1)N(C)C(=O)[C@H](Cc1ccccc1)NC(=O)N1CCOCC1` [Test Compound (b), 2(S)-(N-Morpholinocarbonyl-L-phenylalanyl-N^α -methyl-L-histidyl)amino-1-cyclohexyl-3(S)-hydroxy-6-methylheptane], the inhibition at 32 mg/kg in test [2] stood at 96%. The IC50 in test [1] was 21 nM. The “Maximum hypotensive effect (maximum percentage fall of MAP from pretreatment value)” value in test [3] was found to be 25%. On to `CC(C)CC[C@H](O)[C@H](CC1CCCCC1)NC(=O)[C@H](Cc1c[nH]cn1)NC(=O)[C@H](Cc1ccccc1)NC(=O)N1CCOCC1` [Test Compound (a), 2(S)-(N-Morpholinocarbonyl-L-phenylalanyl-L-histidyl)amino-1-cyclohexyl-3(S)-hydroxy-6-methylheptane], for which the IC50 in test [1] turned out to be 61 nM.
